Measured values published in PubChem BioAssay AID1918995 (Molecular Pharmacology Branch, DTP, NCI, 2023).

Test system: 324938-238-R-J1-PDC complex spheroid growth, % test/control
Test: Anticancer human tumor 324938-238-R-J1-PDC patient-derived bladder carcinoma cell line growth inhibition [AhR]
Conditions: for IC50: curve of first compound; for viability, T/C: stronger effect = lower value
In short: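 Spheroids combined tumor cells with HUVEC endothelial cells and human MSCs as stroma. AhR antagonists were paired with standard or investigational drugs, each dosed in half-log steps down from near clinical Cmax, or from 10 microM where Cmax was unknown.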
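Also: spheroids exposed to agents for seven days before viability read.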

**Q.** With `CC(C)CC(NC(=O)C(Cc1ccccc1)NC(=O)c1cnccn1)B(O)O` (stereo not given) + Cc1ccccc1N=Nc1ccc(NC(=O)c2ccnn2C)c(C)c1 as the compound, how does the IC50 (second compound 0.1 µM) read?
**A.** The IC50 was 5.19 nM.

**Q.** What about the IC50 (second compound 0.316 µM) of the same compound?
**A.** Its IC50 is 4.9 nM.

**Q.** And the IC50 (second compound 1 µM)?
**A.** The IC50 was 4.83 nM.

**Q.** And the IC50 (second compound 3.16 µM)?
**A.** The IC50 was 4.38 nM.

**Q.** And the IC50 (second compound 10 µM)?
**A.** The IC50 was 4.51 nM.

**Q.** And the viability, T/C (second compound 0.1 µM, first compound 0.000949 µM)?
**A.** The viability, T/C was 97.5%.

**Q.** And the viability, T/C (second compound 0.1 µM, first compound 0.003 µM)?
**A.** Its viability, T/C is 94.3%.

**Q.** And the viability, T/C (second compound 0.1 µM, first compound 0.00949 µM)?
**A.** Its viability, T/C is 1.29%.

**Q.** And the viability, T/C (second compound 0.1 µM, first compound 0.03 µM)?
**A.** The viability, T/C was 0.07%.

**Q.** And the viability, T/C (second compound 0.1 µM, first compound 0.0949 µM)?
**A.** Its viability, T/C is 0.09%.

**Q.** And the viability, T/C (second compound 0.1 µM, first compound 0.3 µM)?
**A.** The viability, T/C was 0.27%.

**Q.** And the viability, T/C (second compound 0.316 µM, first compound 0.000949 µM)?
**A.** Its viability, T/C is 92.3%.

**Q.** What about the viability, T/C (second compound 0.316 µM, first compound 0.003 µM) of the same compound?
**A.** Its viability, T/C is 84.6%.

**Q.** And the viability, T/C (second compound 0.316 µM, first compound 0.00949 µM)?
**A.** The viability, T/C was 3.23%.

**Q.** What about the viability, T/C (second compound 0.316 µM, first compound 0.03 µM) of the same compound?
**A.** Its viability, T/C is 0.04%.

**Q.** What about the viability, T/C (second compound 0.316 µM, first compound 0.0949 µM) of the same compound?
**A.** Its viability, T/C is 0.05%.

**Q.** What about the viability, T/C (second compound 0.316 µM, first compound 0.3 µM) of the same compound?
**A.** Its viability, T/C is 0.19%.

**Q.** And the viability, T/C (second compound 1 µM, first compound 0.000949 µM)?
**A.** Its viability, T/C is 95.1%.

**Q.** What about the viability, T/C (second compound 1 µM, first compound 0.003 µM) of the same compound?
**A.** Its viability, T/C is 84.1%.

**Q.** What about the viability, T/C (second compound 1 µM, first compound 0.00949 µM) of the same compound?
**A.** Its viability, T/C is 1.49%.

**Q.** And the viability, T/C (second compound 1 µM, first compound 0.03 µM)?
**A.** Its viability, T/C is 0.04%.

**Q.** And the viability, T/C (second compound 1 µM, first compound 0.0949 µM)?
**A.** Its viability, T/C is 0.07%.

**Q.** And the viability, T/C (second compound 1 µM, first compound 0.3 µM)?
**A.** Its viability, T/C is 0.17%.

**Q.** And the viability, T/C (second compound 3.16 µM, first compound 0.000949 µM)?
**A.** Its viability, T/C is 84.2%.

**Q.** And the viability, T/C (second compound 3.16 µM, first compound 0.003 µM)?
**A.** The viability, T/C was 73.4%.

**Q.** And the viability, T/C (second compound 3.16 µM, first compound 0.00949 µM)?
**A.** The viability, T/C was 2.32%.

**Q.** What about the viability, T/C (second compound 3.16 µM, first compound 0.03 µM) of the same compound?
**A.** Its viability, T/C is 0.06%.

**Q.** And the viability, T/C (second compound 3.16 µM, first compound 0.0949 µM)?
**A.** The viability, T/C was 0.06%.

**Q.** And the viability, T/C (second compound 3.16 µM, first compound 0.3 µM)?
**A.** The viability, T/C was 0.19%.

**Q.** What about the viability, T/C (second compound 10 µM, first compound 0.000949 µM) of the same compound?
**A.** Its viability, T/C is 85.9%.

**Q.** And the viability, T/C (second compound 10 µM, first compound 0.003 µM)?
**A.** Its viability, T/C is 76.1%.

**Q.** What about the viability, T/C (second compound 10 µM, first compound 0.00949 µM) of the same compound?
**A.** Its viability, T/C is 2.47%.

**Q.** What about the viability, T/C (second compound 10 µM, first compound 0.03 µM) of the same compound?
**A.** The viability, T/C was 0.24%.

**Q.** What about the viability, T/C (second compound 10 µM, first compound 0.0949 µM) of the same compound?
**A.** The viability, T/C was 0.36%.

**Q.** What about the viability, T/C (second compound 10 µM, first compound 0.3 µM) of the same compound?
**A.** Its viability, T/C is 0.32%.

**Q.** Which results are given for `COc1cccc2c1C(=O)c1c(O)c3c(c(O)c1C2=O)CC(O)(C(=O)CO)CC3OC1CC(N)C(O)C(C)O1` (stereo not given) + Cc1ccccc1N=Nc1ccc(NC(=O)c2ccnn2C)c(C)c1?
**A.** IC50 (second compound 0.1 µM): < 31.6 nM; IC50 (second compound 0.316 µM): < 31.6 nM; IC50 (second compound 1 µM): < 31.6 nM; IC50 (second compound 3.16 µM): < 31.6 nM; IC50 (second compound 10 µM): < 31.6 nM; viability, T/C (second compound 0.1 µM, first compound 0.0316 µM): 34.7%; viability, T/C (second compound 0.1 µM, first compound 0.1 µM): 29.3%; viability, T/C (second compound 0.1 µM, first compound 0.316 µM): 18.9%; viability, T/C (second compound 0.1 µM, first compound 1 µM): 4.96%; viability, T/C (second compound 0.1 µM, first compound 3.16 µM): 0.1%; viability, T/C (second compound 0.1 µM, first compound 10 µM): 0.15%; viability, T/C (second compound 0.316 µM, first compound 0.0316 µM): 37.7%; viability, T/C (second compound 0.316 µM, first compound 0.1 µM): 35.9%; viability, T/C (second compound 0.316 µM, first compound 0.316 µM): 13.8%; viability, T/C (second compound 0.316 µM, first compound 1 µM): 4.13%; viability, T/C (second compound 0.316 µM, first compound 3.16 µM): 0.05%; viability, T/C (second compound 0.316 µM, first compound 10 µM): 0.13%; viability, T/C (second compound 1 µM, first compound 0.0316 µM): 35.1%; viability, T/C (second compound 1 µM, first compound 0.1 µM): 31.4%; viability, T/C (second compound 1 µM, first compound 0.316 µM): 16.4%; viability, T/C (second compound 1 µM, first compound 1 µM): 3.09%; viability, T/C (second compound 1 µM, first compound 3.16 µM): 0.05%; viability, T/C (second compound 1 µM, first compound 10 µM): 0.12%; viability, T/C (second compound 3.16 µM, first compound 0.0316 µM): 34.7%; viability, T/C (second compound 3.16 µM, first compound 0.1 µM): 31.7%; viability, T/C (second compound 3.16 µM, first compound 0.316 µM): 15.9%; viability, T/C (second compound 3.16 µM, first compound 1 µM): 3.16%; viability, T/C (second compound 3.16 µM, first compound 3.16 µM): 0.08%; viability, T/C (second compound 3.16 µM, first compound 10 µM): 0.13%; viability, T/C (second compound 10 µM, first compound 0.0316 µM): 38%; viability, T/C (second compound 10 µM, first compound 0.1 µM): 37.6%; viability, T/C (second compound 10 µM, first compound 0.316 µM): 22%; viability, T/C (second compound 10 µM, first compound 1 µM): 5.73%; viability, T/C (second compound 10 µM, first compound 3.16 µM): 0.14%; viability, T/C (second compound 10 µM, first compound 10 µM): 0.2%
